In US20050004132A1, “Nitrogenous tetrahydropyridyl-alkyl-heterocycles with tnf activity” (priority 2001, published 2005):
Structures can show the parent of a compound that is named as a salt.

Compared with `Cc1ccc(-c2cccc(CCN3CC=C(c4cccc(C(F)(F)F)c4)CC3)c2)cn1` (as salt: oxalate), `FC(F)(F)c1cccc(C2=CCN(CCc3cccc(-c4ccccn4)c3)CC2)c1` (as salt: oxalate) is higher in melting point: 170 to 173 °C for the first, 182 to 186 °C for the second.

First: FC(F)(F)c1cccc(C2=CCN(CCc3cccc(-c4ccccn4)c3)CC2)n1 (as salt: oxalate)
Second: Fc1cccc(C2=CCN(CCc3cccc(-c4ccccn4)c3)CC2)c1 (as salt: oxalate)
The melting point of the first is lower: 126 to 129 °C for the first, 175 to 177 °C for the second.

First: FC(F)(F)c1cccc(C2=CCN(CCc3cccc(-c4cnccn4)c3)CC2)c1 (as salt: oxalate) [12]
Second: Clc1cccc(C2=CCN(CCc3cccc(-c4ccncc4)c3)CC2)n1 (as salt: oxalate)
The melting point of the first is higher: 205 to 207 °C for the first, 183 to 186 °C for the second.

For `FC(F)(F)c1cccc(C2=CCN(CCc3cccc(-c4cnccn4)c3)CC2)c1` (as salt: oxalate) [14], the melting point was 199 to 201 °C.
